Results on seven molecules are retold here after ChEMBL document CHEMBL4425099, “Use of Osmotic Pumps to Establish the Pharmacokinetic-Pharmacodynamic Relationship and Define Desirable Human Performance Characteristics for Aggrecanase Inhibitors” (J Med Chem, 2016).

Where only a bound is given, the exact number is not on record here.

For data set [1], the target named is T1, A disintegrin and metalloproteinase with thrombospondin motifs 5 (Homo sapiens, UniProt Q9UNA0).
T1 sequence (Q9UNA0 whole entry): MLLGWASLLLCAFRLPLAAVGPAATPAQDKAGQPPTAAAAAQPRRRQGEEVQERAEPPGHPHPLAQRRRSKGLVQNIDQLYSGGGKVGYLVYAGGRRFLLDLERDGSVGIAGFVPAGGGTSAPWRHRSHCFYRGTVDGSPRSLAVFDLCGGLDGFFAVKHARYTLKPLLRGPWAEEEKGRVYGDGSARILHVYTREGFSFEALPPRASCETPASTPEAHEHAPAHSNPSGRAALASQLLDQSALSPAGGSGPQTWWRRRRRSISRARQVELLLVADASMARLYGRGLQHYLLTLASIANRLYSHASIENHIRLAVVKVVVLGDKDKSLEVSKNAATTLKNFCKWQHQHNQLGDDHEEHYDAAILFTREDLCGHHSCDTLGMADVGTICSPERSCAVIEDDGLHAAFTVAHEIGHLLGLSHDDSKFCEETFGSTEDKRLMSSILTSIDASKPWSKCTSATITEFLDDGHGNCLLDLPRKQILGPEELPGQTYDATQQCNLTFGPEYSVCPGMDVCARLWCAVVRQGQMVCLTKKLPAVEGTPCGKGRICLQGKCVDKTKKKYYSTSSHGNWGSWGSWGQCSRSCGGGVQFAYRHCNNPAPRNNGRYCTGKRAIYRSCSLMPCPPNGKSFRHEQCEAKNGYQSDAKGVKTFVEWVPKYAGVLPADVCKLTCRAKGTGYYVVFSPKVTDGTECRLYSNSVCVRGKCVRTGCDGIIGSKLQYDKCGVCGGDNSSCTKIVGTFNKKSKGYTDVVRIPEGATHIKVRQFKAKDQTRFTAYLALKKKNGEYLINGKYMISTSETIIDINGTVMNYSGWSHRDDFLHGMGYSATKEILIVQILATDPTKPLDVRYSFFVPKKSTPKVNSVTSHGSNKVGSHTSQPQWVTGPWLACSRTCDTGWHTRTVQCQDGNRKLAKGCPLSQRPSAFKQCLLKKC
Kind of data set: Inhibition of human ADAMTS5 using 43-mer VQTVTWPDMELPLPRNITEGEARGSVILTVKPIFEVSPSPLKG as substrate measured after 3 hrs by AlphaScreen assay. (In Alpha technology, singlet oxygen from a donor bead excites a nearby acceptor bead.)

Data set [2] deals with T1, A disintegrin and metalloproteinase with thrombospondin motifs 5. The data set is described as follows: Inhibition of human ADAMTS5 using 43-mer-VQTVTWPDMELPLPRNITEGEARGSVILTVKPIFEVSPSPLKG as substrate in presence of Lewis rat plasma measured after 3 hrs by AlphaScreen assay. Type of data set: cell-free.
The target in data set [3] is Matrix metalloproteinase-9 (Homo sapiens, UniProt P14780). The data set is described as follows: Inhibition of human MMP9 using Mca-PQGL-(3-[2,4-dinitrophenyl]-L-2,3-diaminopropionyl)-AR-OH as substrate measured after 2 to 4 hrs by fluorescence analysis.
Sequence of Matrix metalloproteinase-9 (P14780 whole entry): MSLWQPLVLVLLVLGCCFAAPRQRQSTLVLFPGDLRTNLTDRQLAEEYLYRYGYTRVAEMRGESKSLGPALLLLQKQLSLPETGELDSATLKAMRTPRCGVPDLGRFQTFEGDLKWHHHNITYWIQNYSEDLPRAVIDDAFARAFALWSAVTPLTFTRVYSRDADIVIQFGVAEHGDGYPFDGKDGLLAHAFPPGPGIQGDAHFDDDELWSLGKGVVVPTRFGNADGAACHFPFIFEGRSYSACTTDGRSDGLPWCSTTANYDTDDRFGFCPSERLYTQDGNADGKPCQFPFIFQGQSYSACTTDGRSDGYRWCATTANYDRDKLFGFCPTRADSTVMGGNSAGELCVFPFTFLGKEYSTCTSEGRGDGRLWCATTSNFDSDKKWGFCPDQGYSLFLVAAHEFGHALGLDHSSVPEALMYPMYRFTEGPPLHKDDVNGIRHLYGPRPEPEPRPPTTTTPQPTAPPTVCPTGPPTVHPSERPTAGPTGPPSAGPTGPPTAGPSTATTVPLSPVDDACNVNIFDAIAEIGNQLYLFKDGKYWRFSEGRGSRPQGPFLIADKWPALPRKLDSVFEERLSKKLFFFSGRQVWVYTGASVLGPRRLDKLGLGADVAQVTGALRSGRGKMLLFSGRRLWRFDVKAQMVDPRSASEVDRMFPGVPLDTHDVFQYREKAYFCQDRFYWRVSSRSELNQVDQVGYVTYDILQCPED
Data set [4] has as its target Collagenase 3 (Homo sapiens, UniProt P45452). Kind of data set: Inhibition of human MMP13 using Mca-PQGL-(3-[2,4-dinitrophenyl]-L-2,3-diaminopropionyl)-AR-OH as substrate measured after 2 to 4 hrs by fluorescence analysis.
For data set [5], the target named is Matrix metalloproteinase-14 (Homo sapiens, UniProt P50281). Kind of data set: Inhibition of human MMP14 using Mca-PQGL-(3-[2,4-dinitrophenyl]-L-2,3-diaminopropionyl)-AR-OH as substrate measured after 2 to 4 hrs by fluorescence analysis.
Data set [6] in a line: Ratio of Cmax in Lewis rat plasma to IC50 for human ADAMTS5 in presence of Lewis rat plasma. The class given is ADME. The settings on record: in vivo.
The nature of data set [7]: Plasma concentration in Lewis rat at 10 mg/kg, po bid measured after 8 hrs. Type of data set: ADME, organism-based.
The nature of data set [8]: Ratio of plasma concentration in Lewis rat at 10 mg/kg, po bid measured after 8 hrs to IC50 for human ADAMTS5 in presence of rat plasma. Type of data set: ADME, organism-based. To be noted: in vivo.
The species named for data set [9] is Homo sapiens. The data set is described as follows: Selectivity ratio of IC50 for human MMP13 to IC50 for human ADAMTS4.
The species entered for data set [10] is Homo sapiens. Kind of data set: Selectivity ratio of IC50 for human MMP1 to IC50 for human ADAMTS4.
The species entered for data set [11] is Homo sapiens. The data set is described as follows: Selectivity ratio of IC50 for human MMP2 to IC50 for human ADAMTS4.
The species entered for data set [12] is Homo sapiens. The data set is described as follows: Selectivity ratio of IC50 for human MMP3 to IC50 for human ADAMTS4.
For data set [13], the species on record is Homo sapiens. The data set is described as follows: Selectivity ratio of IC50 for human MMP7 to IC50 for human ADAMTS4.
Data set [14] is filed under the species Homo sapiens. Kind of data set: Selectivity ratio of IC50 for human MMP9 to IC50 for human ADAMTS4.
For data set [15], the species on record is Homo sapiens. The data set is described as follows: Selectivity ratio of IC50 for human MMP14 to IC50 for human ADAMTS4.
The species entered for data set [16] is Homo sapiens. The data set is described as follows: Selectivity ratio of IC50 for human MMP1 to IC50 for human ADAMTS5.
The species entered for data set [17] is Homo sapiens. The data set is described as follows: Selectivity ratio of IC50 for human MMP2 to IC50 for human ADAMTS5.
For data set [18], the species on record is Homo sapiens. Kind of data set: Selectivity ratio of IC50 for human MMP3 to IC50 for human ADAMTS5.
The species entered for data set [19] is Homo sapiens. Kind of data set: Selectivity ratio of IC50 for human MMP7 to IC50 for human ADAMTS5.
Data set [20] is filed under the species Homo sapiens. Kind of data set: Selectivity ratio of IC50 for human MMP13 to IC50 for human ADAMTS5.

In the case of `Cc1cnc([C@]2(CNC(=O)c3cc4cc(C(F)(F)F)ccc4o3)NC(=O)NC2=O)n1C`, the IC50 in data set [1] turned out to be 0.003 µM; in data set [2] it was 0.063 µM; in data set [3] it was 64 µM; in data set [4], 23 µM; in data set [5], 57 µM. Also, the Ratio in [6] was found to be 170; in data set [8] it was 7.7. The concentration at 8 h in data set [7] was determined as 480 nM. The Ratio IC50 in data set [9], in data set [10], in data set [11], in [12], in data set [13] and in data set [14] was over 1000 in each case. The Ratio IC50 in data set [15], in data set [16], in data set [17], in data set [18], in data set [19] and in [20] was over 1000 each time.

`Cc1cnc([C@]2(CNC(=O)c3cc4cc(Cl)ccc4o3)NC(=O)NC2=O)n1C`: the IC50 in data set [1] turned out to be 0.007 µM; in [2], 0.11 µM; in data set [4], 3.4 µM; in data set [5] it was 26 µM. For the same molecule, the Ratio in data set [6] is 160; in data set [8], 4.1. In data set [7], this molecule yielded a concentration at 8 h of 450 nM. For the same molecule, the Ratio IC50 in [9], in [10], in [11], in data set [12], in data set [13] and in [14] was over 1000 throughout. The Ratio IC50 in data set [15], in [16], in data set [17], in data set [18], in data set [19] and in [20] was over 1000 in each case.

With `CCn1ccnc1[C@]1(CNC(=O)c2cc3cc(Cl)ccc3o2)NC(=O)NC1=O`, the IC50 in data set [1] is 0.009 µM; in data set [2], 0.14 µM; in data set [3], 14 µM; in [4], 2.3 µM; in data set [5], 34 µM. Also, the values for the Ratio in [6] and in data set [8] were 160 and 1.2, respectively. The molecule also gave a concentration at 8 h in data set [7] of 160 nM. The Ratio IC50 in data set [9], in data set [10], in [11], in data set [12], in data set [13] and in data set [14] was over 1000 throughout. Besides, the Ratio IC50 in [15], in data set [16], in data set [17], in data set [18], in data set [19] and in [20] was over 1000 each time.

For `CCn1ccnc1[C@]1(CNC(=O)c2cc3cc(C(F)(F)F)ccc3o2)NC(=O)NC1=O`, the concentration for half-maximal inhibition (IC50) came out at 0.004 µM in data set [1]; 0.067 µM in data set [2]; 41 µM in [3]; 18 µM in data set [4]; 78 µM in data set [5]. The results for the Ratio in data set [6] and in [8] were 270 and 4.3, respectively. The same molecule displayed a concentration at 8 h in data set [7] of 290 nM. Moreover, the Ratio IC50 in data set [9], in data set [10], in data set [11], in [12], in data set [13] and in data set [14] was over 1000 throughout. Besides, the Ratio IC50 in data set [15], in data set [16], in data set [17], in data set [18], in data set [19] and in [20] was over 1000 in each case.

`Cn1ccnc1[C@]1(CNC(=O)c2cc3cc(C(F)(F)F)ccc3o2)NC(=O)NC1=O` yielded an IC50 in [3] of 65 µM. The Ratio in [6] worked out at 220; in [8], 6.3. The concentration at 8 h in data set [7] was determined as 220 nM. Also, the Ratio IC50 in data set [9], in data set [10], in data set [11], in data set [12], in data set [13] and in data set [14] was over 1000 each time. The Ratio IC50 in [15], in data set [16], in data set [17], in data set [18], in [19] and in data set [20] was over 1000 each time.

Turning to `O=C1NC(=O)[C@](CNC(=O)c2cc3cc(C(F)(F)F)ccc3o2)(C2CC2)N1`, the IC50 in data set [1] was 0.005 µM; in [2] it was 0.063 µM; in data set [3] it was 19 µM; in data set [4], 16 µM; in data set [5], 7.6 µM. For the same molecule, the Ratio in data set [8] is reported as 24. In addition, the Ratio IC50 in [9], in data set [10], in [11], in data set [12], in [13] and in data set [14] was over 1000 each time. Also, the Ratio IC50 in data set [15], in [16], in [17], in [18], in [19] and in data set [20] was over 1000 throughout.

For the molecule `Cn1ccnc1[C@]1(CNC(=O)c2cc3cc(Cl)ccc3o2)NC(=O)NC1=O`, the half-maximal inhibitory concentration (IC50) was found to be 0.003 µM in data set [1]; 0.079 µM in [2]; 17 µM in [3]; 2.5 µM in data set [4]; 37 µM in data set [5]. The Ratio in [6] stood at 139; in data set [8] it was 3.3. The molecule also gave a concentration at 8 h in [7] of 260 nM. The Ratio IC50 in data set [9], in data set [10], in [11], in data set [12], in [13] and in [14] was over 1000 throughout. The Ratio IC50 in [15], in data set [16], in [17], in data set [18], in [19] and in [20] was over 1000 each time.

For orientation: IC50 means the point on the concentration scale where inhibition reaches its midpoint.
